Consider 2 compounds from publication PMC12524618, “Conformational Dynamics of the Active Site Loop in Dihydroorotase Highlighting the Limitations of Loop-In Structures for Inhibitor Docking” (International Journal of Molecular Sciences, 2025).

Each structure is given as a SMILES string.

Experiment [1] deals with T1, Saccharomyces cerevisiae dihydroorotase (DHOase) (Saccharomyces cerevisiae, UniProt P20051).
T1 construct: gene URA4
T1 sequence (P20051 1-364): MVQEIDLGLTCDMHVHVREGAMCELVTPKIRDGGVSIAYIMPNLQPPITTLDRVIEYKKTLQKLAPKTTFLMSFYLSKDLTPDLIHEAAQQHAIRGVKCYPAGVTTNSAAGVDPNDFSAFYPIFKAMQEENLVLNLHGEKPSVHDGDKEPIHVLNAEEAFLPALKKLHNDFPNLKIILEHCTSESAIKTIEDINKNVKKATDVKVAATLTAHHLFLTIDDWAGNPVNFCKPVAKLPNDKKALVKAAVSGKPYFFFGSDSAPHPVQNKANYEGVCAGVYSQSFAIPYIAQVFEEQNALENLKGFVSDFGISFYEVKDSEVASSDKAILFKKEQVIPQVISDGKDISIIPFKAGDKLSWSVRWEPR
As to the kind of experiment: spectrophotometric assay of dihydroorotate hydrolysis at […] nm with purified recombinant enzyme; […] inhibition at […]. The experiment is classed as biochemical.

The target in experiment [2] is T1, Saccharomyces cerevisiae dihydroorotase (DHOase). As to the kind of experiment: spectrophotometric assay of dihydroorotate hydrolysis at […] nm with purified recombinant enzyme. The experiment is classed as biochemical.

Take `O=C(O)c1[nH]c(=O)[nH]c(=O)c1F` [5-FOA]: the IC50 (as a rule, the concentration that inhibits the measured activity by half) in experiment [1] is over 600 µM.
For the compound `O=c1c(O)c(-c2cc(O)c(O)c(O)c2)oc2cc(O)cc(O)c12` [myricetin], the IC50 in experiment [2] was determined as 12.5 ± 0.47 µM.
